Results taken from patent EP1541694A1, “Methods of identifying, selecting and/or characterizing compounds which modulate the activity of a Src family kinase” (Sirenade Pharmaceuticals AG, priority 2003, dated 2005).

Legend:
[1] = tested on: Src-YF expressing ZM77 cell lines; experiment: Suppression of tet-induced phenotype changes, evaluated by eye/microscope, normal cell culture plates; assay type: cell-based, human; details: adherent, serum-containing medium
Protocol: (§1) Phenotype changes -tet → +tet were evaluated in 24-well plates (Nunc; cat.no. 143982) under the following several different growth conditions to identify the strongest possible response (Δpt(-tet→+tet)max) 1. full (10% serum containing) growth medium a) without any growth factor supplement (-), b) with epidermal growth factor (EGF; 100ng/ml) (cat.no. 115, Research Diagnostics Inc. (RDI), Flanders, NJ, USA) or c) platelet derived growth factor type BB (PDGF-BB; 30ng/ml) (cat.no. 114b, RDI) or d) hepatocyte growth factor (HGF; 20ng/ml) (RDI, cat.no.300-010), or 2. serum-free medium a) - or b) +EGF or c) +PDGF or d) +HGF. In all cases, cells were first seeded into standard 24-well or 96-well plates (Nunc) in full growth medium. The cell number seeded per well was also varied to identify the most suitable cell densities producing Δpt(-tet→+tet)max. […]
(§2) To that end, the test compounds PP1-Chr., PP2 (cat.no. 529573, Calbiochem) and SU6656 (cat.no. 572635, Calbiochem) (see Fig.9p for chemical structures) were individually added to the cells together with tet, and the development of the phenotype changes in the presence of these compounds was monitored subsequently in direct comparison with cells that received no compound or only vehicle (0.2% DMSO) together with tet induction. […]

[2] = tested on: Src family kinases when they carry the respective TQ mutations; details: cited from earlier work
[3] = tested on: Src-TQ/YF expressing ZM170 cell lines; experiment: Suppression of tet-induced phenotype changes, evaluated by eye/microscope, normal cell culture plates; assay type: cell-based, human; details: adherent, PP1-Chr. and PP2 shown as combination 10µM + 5µM
Protocol: as §1, §2

[4] = tested on: Src-TQ/YF expressing cell line ZM170.21; experiment: Suppression of tet-induced phenotype changes (cell scattering) in suspension, Ultra Low Attachment plates; assay type: cell-based, human; details: ZM170.21 (Src-TQ/YF) in suspension, Ultralow Attachment Plates
Protocol: (§3) Cells were seeded into 24-well or 96-well "Ultra Low Attachment" plates (cat.no.: 3473, Costar Corning Corp., Acton, MA, USA). These plates are coated with a covalently bound hydrogel layer that prevents cellular attachment to the polystyrene surface of the wells. As the cells were not attached to these wells, a medium change was impossible here. However, the phenotypes were tested in full serum-containing medium in the absence or presence of EGF, PDGF-BB or HGF as detailed above. Tet-induction was also started the day after seeding.
(§4) Largely irrespective of the cell numbers per well, the cells of all cell lines were in suspension and formed one or few very condensed/compact, opaque, rod-, disc- or kidney-shaped aggregates with a smooth surface, in which individual cells could not be discerned. Phenotype changes became apparent ~24 h after tet induction in ZM77 and ZM170 cell lines only, and Δpt(-tet →+tet)max was reached after ~2 days. In these cell lines Src-YF or Src-TQ/YF expression, respectively, induces scattering of the cells. Many cells are floating in the medium individually or in small clusters and the remaining large aggregate(s) are irregular-shaped and rather loose than compact; individual cells can easily be discerned and thus, the surfaces of these aggregates are rough as with bunches of grapes (Fig.14a,b). This biological response was readily observed with or without any of the above growth factors, wherefore normal growth medium without any additional growth factor was subsequently used in this assay type.
(§5) To that end, the test compounds PP1-Chr., SU6656 and PP2 were individually added to the cells together with tet, and the development of the phenotype changes in the presence of these compounds was monitored subsequently in direct comparison with tet-induced cells that received no compound (Fig.14c-j). The compounds were also added to the cells without tet-induction of Src/ Src mutant expression as controls for non-specific/ toxicity effects. The experiments were performed with several ZM77 cell lines.

[5] = tested on: Src-YF expressing ZM77 cell lines; experiment: as above; assay type: cell-based, human; details: Ultralow Attachment Plates
Protocol: as §3, §4, §5

CC(C)(C)n1nc(-c2ccc(Cl)cc2)c2c(N)ncnc21 [PP2]
suppression of tet-induced phenotype changes [1]: partially suppressed | inhibition of Src family kinases carrying the TQ mutations [2]: do not inhibit | suppression of tet-induced phenotype changes [3]: ineffective | suppression of tet-induced phenotype (cell scattering) [4]: largely ineffective | suppression of tet-induced phenotype changes (cell scattering) [5]: partially suppressed
